Results: patent publication US6399574B1 (priority 1997, dated 2002)
Where a SMILES comes first, the peptide text is derived from it. [ ]: non-standard residue; d: D form. Gla = N[C@@H](CC(C(=O)O)C(=O)O)C(=O)O

How the values were obtained:
NR1-1b/NR2B NMDA subtype = target: T1, NR1-1b/NR2B NMDA subtype (Homo sapiens, UniProt Q05586+Q13224); type: cell-based
T1 construct: expressed in transfected cells; host or cells: oocytes

NR1. 1B subtype = target: T2, NR1. 1B subtype (Homo sapiens, UniProt Q05586); type: cell-based
T2 construct: expressed in transfected cells; host or cells: oocytes

[1] = test system: Frings audiogenic seizure susceptible mice; conditions: mouse, in vivo

T1 sequence (Q13224 27-1484, other chains not shown): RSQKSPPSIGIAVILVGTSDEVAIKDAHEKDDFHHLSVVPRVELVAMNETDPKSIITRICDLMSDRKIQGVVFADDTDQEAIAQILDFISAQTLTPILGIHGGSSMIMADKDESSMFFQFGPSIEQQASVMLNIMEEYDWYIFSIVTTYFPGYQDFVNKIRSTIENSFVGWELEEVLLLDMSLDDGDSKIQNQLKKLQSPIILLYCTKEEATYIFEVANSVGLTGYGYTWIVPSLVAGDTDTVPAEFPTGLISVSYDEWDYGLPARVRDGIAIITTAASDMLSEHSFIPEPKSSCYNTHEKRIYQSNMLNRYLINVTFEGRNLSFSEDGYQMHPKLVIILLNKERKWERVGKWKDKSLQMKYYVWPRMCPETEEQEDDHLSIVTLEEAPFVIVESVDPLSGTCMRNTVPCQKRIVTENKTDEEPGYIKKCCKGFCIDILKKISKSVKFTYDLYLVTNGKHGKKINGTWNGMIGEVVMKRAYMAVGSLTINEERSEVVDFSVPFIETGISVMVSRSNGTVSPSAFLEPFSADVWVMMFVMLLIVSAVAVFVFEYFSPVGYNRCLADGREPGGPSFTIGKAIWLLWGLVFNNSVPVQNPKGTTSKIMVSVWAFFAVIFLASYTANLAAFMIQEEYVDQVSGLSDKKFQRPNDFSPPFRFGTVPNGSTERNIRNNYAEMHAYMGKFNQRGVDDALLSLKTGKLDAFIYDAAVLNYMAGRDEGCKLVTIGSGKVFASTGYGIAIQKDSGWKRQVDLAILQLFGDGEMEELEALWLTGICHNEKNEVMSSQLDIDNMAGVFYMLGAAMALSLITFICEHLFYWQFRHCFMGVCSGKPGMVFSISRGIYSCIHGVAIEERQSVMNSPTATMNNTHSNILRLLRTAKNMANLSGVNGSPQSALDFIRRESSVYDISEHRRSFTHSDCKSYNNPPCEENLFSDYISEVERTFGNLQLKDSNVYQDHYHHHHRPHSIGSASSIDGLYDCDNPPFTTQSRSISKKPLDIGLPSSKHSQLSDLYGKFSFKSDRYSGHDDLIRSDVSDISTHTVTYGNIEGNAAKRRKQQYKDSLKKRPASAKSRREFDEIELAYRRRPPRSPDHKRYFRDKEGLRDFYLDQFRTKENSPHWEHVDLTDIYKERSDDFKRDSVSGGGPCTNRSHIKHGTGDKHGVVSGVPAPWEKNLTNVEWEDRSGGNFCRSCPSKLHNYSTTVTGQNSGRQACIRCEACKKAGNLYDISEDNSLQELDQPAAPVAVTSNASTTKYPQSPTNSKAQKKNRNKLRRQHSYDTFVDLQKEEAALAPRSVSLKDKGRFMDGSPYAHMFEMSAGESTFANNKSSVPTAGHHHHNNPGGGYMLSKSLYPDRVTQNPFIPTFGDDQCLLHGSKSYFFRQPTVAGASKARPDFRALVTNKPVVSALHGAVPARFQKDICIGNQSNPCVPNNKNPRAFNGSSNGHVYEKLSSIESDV

Row | Compound | affinity for NR1-1b/NR2B relative to NR1-1b/NR2D (NR1-1b/NR2B NMDA subtype) | inhibition of the current produced in response to glutamate and glycine (NR1-1b/NR2B NMDA subtype) | selectivity for the B splice variant in heteromeric complexes (NR1-1b/NR2B NMDA subtype) | inhibition of homomeric NR1 complex, 1B subtype (NR1. 1B subtype) | ED50 [1] [nmols] | ED50 (pmol, i.c.v.) [1] [pmol]
1 | CC[C@H](C)[C@H](NC(=O)[C@H](CC(N)=O)NC(=O)[C@H](CC(C(=O)O)C(=O)O)NC(=O)[C@H](CCCNC(=N)N)NC(=O)[C@H](C)NC(=O)[C@H](CC(C)C)NC(=O)[C@H](CC(C(=O)O)C(=O)O)NC(=O)[C@H](C)NC(=O)[C@H](C)NC(=O)[C@H](CCSC)NC(=O)[C@H](CCCCN)NC(=O)[C@H](C)NC(=O)[C@@H](NC(=O)[C@H](CC(C(=O)O)C(=O)O)NC(=O)[C@H](CC(C(=O)O)C(=O)O)NC(=O)[C@H](CCC(=O)O)NC(=O)CN)C(C)C)C(=O)N[C@@H](C)C(=O)N[C@@H](CCCCN)C(=O)NCC(=O)N[C@H]1CSSC[C@@H](C(=O)N[C@@H](Cc2ccc(O)cc2)C(=O)N2CCC[C@H]2C(=O)O)NC(=O)[C@H](CC(N)=O)NC(=O)[C@H](C(C)C)NC(=O)[C@H](CCCCN)NC1=O [Con R] | greater than 50 fold | approximately 95% | selective for the B splice variant | only inhibited the NR1. 1B subtype |  | 
2 | CSCC[C@H](NC(=O)[C@H](CCCCN)NC(=O)[C@H](CCC(N)=O)NC(=O)[C@H](Cc1ccc(O)cc1)NC(=O)[C@H](CC(C(=O)O)C(=O)O)NC(=O)[C@H](CC(C(=O)O)C(=O)O)NC(=O)[C@H](CCC(=O)O)NC(=O)CN)C(=O)N[C@@H](CC(C)C)C(=O)N[C@@H](CC(C(=O)O)C(=O)O)C(=O)N[C@@H](CC(N)=O)C(=O)N[C@@H](CC(C)C)C(=O)N[C@@H](CCCNC(=N)N)C(=O)N[C@@H](CC(C(=O)O)C(=O)O)C(=O)N[C@@H](C)C(=O)N[C@@H](CCC(=O)O)C(=O)N[C@H](C(=O)N[C@@H](CCCCN)C(=O)N[C@@H](CCCCN)C(=O)N[C@@H](CC(N)=O)C(=O)N[C@@H](C)C(N)=O)C(C)C [Con T, Gly-Glu-Xaa1-Xaa1-Tyr-Gln-Lys-Met-Leu-Xaa2-Asn-Leu-Arg-Xaa2-Ala-Glu-Val-Lys-Lys-Asn-Ala] (H-GE[Gla][Gla]YQKML[Gla]NLR[Gla]AEVKKNA-NH2) |  |  |  |  | 0.017 | 5.1
